The record followed here is patent US20260274892A1, “MACROCYCLIC BROAD SPECTRUM ANTIBIOTICS” (RQx Pharmaceuticals, Inc., priority 2017, published 2026).

SMILES strings stand for the structures.

For the first assay, the system named is Escherichia coli ATCC 25922. Description: Minimum inhibitory concentration (MIC), CLSI broth micro-dilution, E. coli. The assay is classed as cell-based. The conditions noted are these: Escherichia coli, ATCC25922, 22 h, Table 6, cation adjusted Mueller Hinton Broth + 0.002% Tween-80, 35° C. The gist of the method:
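Antibacterial potency is measured as MIC by the CLSI broth dilution method. Bacteria at OD600 0.0005 in Tween-80-supplemented cation-adjusted Mueller Hinton broth face ten twofold compound dilutions for 22 h at 35° C.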
Consider `Cc1cc(-c2ccc(C(C)(C)C)cc2)cc(N)c1C(=O)N[C@@H](CCN)C(=O)N(C)[C@@H]1C(=O)N[C@@H](C)C(=O)N[C@H](C(=O)NCC#N)Cc2ccc(OCCN)c(c2)-c2cc1ccc2OCCN` (racemic) [Compound 373, rac-(8S,11S,14S)-3,18-bis(2-aminoethoxy)-N-(cyanomethyl)-11-methyl-14-[methyl-[rac-(2S)-4-amino-2-[[2-amino-4-(4-tert-butylphenyl)-6-methyl-benzoyl]amino]butanoyl]amino]-10,13-dioxo-9,12-diazatricyclo[13.3.1.12,6]icosa-1(18),2(20),3,5,15(19),16-hexaene-8-carboxamide], for which the minimal inhibitory concentration (MIC) was 0.13 µM. `Cc1nc(-c2ccc(OCCC(C)(C)C)cc2)cc(N)c1C(=O)N[C@@H](CCN)C(=O)N(C)[C@@H]1C(=O)N[C@@H](C)C(=O)N[C@H](C(=O)NCC#N)Cc2ccc(OCCN)c(c2)-c2cc1ccc2OCCN` (racemic) [Compound 538, rac-(8S,11S,14S)-3,18-bis(2-aminoethoxy)-N-(cyanomethyl)-11-methyl-14-[methyl-[rac-(2S)-4-amino-2-[[4-amino-6-[4-(3,3-dimethylbutoxy)phenyl]-2-methyl-pyridine-3-carbonyl]amino]butanoyl]amino]-10,13-dioxo-9,12-diazatricyclo[13.3.1.12,6]icosa-1(18),2(20),3,5,15(19),16-hexaene-8-carboxamide]: the MIC is 0.063 µM. Take `Cc1nc(-c2ccc(OC3CCCCC3)cc2)nc(C)c1C(=O)N[C@@H](CCN)C(=O)N(C)[C@@H]1C(=O)N[C@@H](C)C(=O)N[C@H](C(=O)NCC#N)Cc2ccc(OCCN)c(c2)-c2cc1ccc2O` (racemic) [Compound 522, rac-(8S,11S,14S)-3-(2-aminoethoxy)-N-(cyanomethyl)-18-hydroxy-11-methyl-14-[methyl-[rac-(2S)-4-amino-2-[[2-[4-(cyclohexoxy)phenyl]-4,6-dimethyl-pyrimidine-5-carbonyl]amino]butanoyl]amino]-10,13-dioxo-9,12-diazatricyclo[13.3.1.12,6]icosa-1(18),2(20),3,5,15(19),16-hexaene-8-carboxamide]: the MIC is 0.13 µM. Regarding `Cc1nc(-c2ccc(C(C)(C)C)cc2)cc(OCC(N)=O)c1C(=O)N[C@@H](CCN)C(=O)N(C)[C@@H]1C(=O)N[C@@H](C)C(=O)N[C@H](C(=O)NCC#N)Cc2ccc(OCCN)c(c2)-c2cc1ccc2OCCN` (racemic) [Compound 551, rac-(8S,11S,14S)-3,18-bis(2-aminoethoxy)-N-(cyanomethyl)-11-methyl-14-[methyl-[rac-(2S)-4-amino-2-[[4-(2-amino-2-oxo-ethoxy)-6-(4-tert-butylphenyl)-2-methyl-pyridine-3-carbonyl]amino]butanoyl]amino]-10,13-dioxo-9,12-diazatricyclo[13.3.1.12,6]icosa-1(18),2(20),3,5,15(19),16-hexaene-8-carboxamide], the MIC was 1 µM. As to `Cc1nc(-c2ccc(C3=CCCCC3)cc2)nc(C)c1C(=O)N[C@@H](CCN)C(=O)N(C)[C@@H]1C(=O)N[C@@H](C)C(=O)N[C@H](C(=O)NCC#N)Cc2ccc(OCCN)c(c2)-c2cc1ccc2OCCN` (racemic) [Compound 303, rac-(8S,11S,14S)-3,18-bis(2-aminoethoxy)-N-(cyanomethyl)-11-methyl-14-[methyl-[rac-(2S)-4-amino-2-[[2-[4-(cyclohexen-1-yl)phenyl]-4,6-dimethyl-pyrimidine-5-carbonyl]amino]butanoyl]amino]-10,13-dioxo-9,12-diazatricyclo[13.3.1.12,6]icosa-1(18),2(20),3,5,15(19),16-hexaene-8-carboxamide], the MIC turned out to be 0.13 µM.

Still in this assay, the particulars now being: Escherichia coli, ATCC25922, 22 h, Table 7, cation adjusted Mueller Hinton Broth + 0.002% Tween-80, 35° C.
In the case of `Cc1nc(-c2ccc(C(C)(C)C)cc2)nc(C)c1C(=O)N[C@@H](CCN)C(=O)N(C)[C@@H]1C(=O)N[C@@H](C)C(=O)N[C@H](C(=O)NCC#N)Cc2ccc(O)c(c2)-c2cc1ccc2OCCNC(=N)N` (racemic) [Compound 595, rac-(8S,11S,14S)-N-(cyanomethyl)-18-(2-guanidinoethoxy)-3-hydroxy-11-methyl-14-[methyl-[rac-(2S)-4-amino-2-[[2-(4-tert-butylphenyl)-4,6-dimethyl-pyrimidine-5-carbonyl]amino]butanoyl]amino]-10,13-dioxo-9,12-diazatricyclo[13.3.1.12,6]icosa-1(18),2(20),3,5,15(19),16-hexaene-8-carboxamide], the MIC amounted to 0.33 µM. The same measure, in the same setting: the result for `Cc1nc(-c2ccc(C(C)(C)C)cc2)nc(C)c1C(=O)N[C@@H](CCN)C(=O)N(C)[C@@H]1C(=O)N[C@@H](C)C(=O)N[C@H](C(=O)NCC#N)Cc2ccc(OCCN)c(c2)-c2cc1ccc2CN` (racemic) [Compound 634, rac-(8S,11S,14S)-3-(2-aminoethoxy)-18-(aminomethyl)-N-(cyanomethyl)-11-methyl-14-[methyl-[rac-(2S)-4-amino-2-[[2-(4-tert-butylphenyl)-4,6-dimethyl-pyrimidine-5-carbonyl]amino]butanoyl]amino]-10,13-dioxo-9,12-diazatricyclo[13.3.1.12,6]icosa-1(18),2,4,6(20),15(19),16-hexaene-8-carboxamide] reads 0.25 µM. As to `Cc1nc(-c2ccc(C(C)(C)C)cc2)nc(C)c1C(=O)N[C@@H](CCN)C(=O)N(C)[C@@H]1C(=O)N[C@@H](C)C(=O)N[C@H](C(=O)NCC#N)Cc2ccc(O)c(c2)-c2cc1ccc2OCCCNC(=N)N` (racemic) [Compound 596, rac-(8S,11S,14S)-N-(cyanomethyl)-18-(3-guanidinopropoxy)-3-hydroxy-11-methyl-14-[methyl-[rac-(2S)-4-amino-2-[[2-(4-tert-butylphenyl)-4,6-dimethyl-pyrimidine-5-carbonyl]amino]butanoyl]amino]-10,13-dioxo-9,12-diazatricyclo[13.3.1.12,6]icosa-1(18),2(20),3,5,15(19),16-hexaene-8-carboxamide], the MIC was 0.5 µM. On to `Cc1nc(-c2ccc(C(C)(C)C)cc2)nc(C)c1C(=O)N[C@@H](CCN)C(=O)N(C)[C@@H]1C(=O)N[C@@H](C)C(=O)N[C@H](C(=O)NCC#N)Cc2ccc(O)c(c2)-c2cc1cc(OCCN)c2O` [Compound 632, (8S,11S,14S)-14-[[(2S)-4-amino-2-[[2-(4-tert-butylphenyl)-4,6-dimethyl-pyrimidine-5-carbonyl]amino]butanoyl]-methyl-amino]-17-(2-aminoethoxy)-N-(cyanomethyl)-3,18-dihydroxy-11-methyl-10,13-dioxo-9,12-diazatricyclo[13.3.1.12,6]icosa-1(18),2(20),3,5,15(19),16-hexaene-8-carboxamide], for which the MIC came out at 0.5 µM.

The same assay, now with this note: Escherichia coli, ATCC25922, Table 6, cation adjusted Mueller Hinton Broth + 0.002% Tween-80, 35° C., 22 hours.
For the compound `CC(C)Cc1ccc(-c2ncc(C(=O)N[C@@H](CCN)C(=O)N(C)[C@@H]3C(=O)N[C@@H](C)C(=O)N[C@H](C(=O)NCC#N)Cc4ccc(OCCN)c(c4)-c4cc3ccc4OCCN)c(C(F)F)n2)cc1` (racemic) [Compound 418, rac-(8S,11S,14S)-3,18-bis(2-aminoethoxy)-N-(cyanomethyl)-11-methyl-14-[methyl-[rac-(2S)-4-amino-2-[[4-(difluoromethyl)-2-(4-isobutylphenyl)pyrimidine-5-carbonyl]amino]butanoyl]amino]-10,13-dioxo-9,12-diazatricyclo[13.3.1.12,6]icosa-1(18),2(20),3,5,15(19),16-hexaene-8-carboxamide], the MIC amounted to 0.064 µM.

The same assay, now with this note: Escherichia coli, ATCC25922, Table 7, cation adjusted Mueller Hinton Broth + 0.002% Tween-80, 35° C., 22 hours.
Turning to `Cc1nc(-c2ccc(C(C)(C)C)cc2)nc(C)c1C(=O)N[C@@H](CCN)C(=O)N(C)[C@@H]1C(=O)N[C@@H](C)C(=O)N[C@H](C(=O)NCC#N)Cc2cc(NC(N)=O)c(O)c(c2)-c2cc1ccc2OCCN` (racemic) [Compound 618, rac-(8S,11S,14S)-18-(2-aminoethoxy)-N-(cyanomethyl)-3-hydroxy-11-methyl-14-[methyl-[rac-(2S)-4-amino-2-[[2-(4-tert-butylphenyl)-4,6-dimethyl-pyrimidine-5-carbonyl]amino]butanoyl]amino]-10,13-dioxo-4-ureido-9,12-diazatricyclo[13.3.1.12,6]icosa-1(18),2(20),3,5,15(19),16-hexaene-8-carboxamide], the minimum inhibitory concentration (MIC) stood at 0.19 µM. As to `CC(=O)Nc1cc2cc(c1O)-c1cc(ccc1OCCN)C[C@@H](C(=O)NCC#N)NC(=O)[C@H](C)NC(=O)[C@H]2N(C)C(=O)[C@H](CCN)NC(=O)c1c(C)nc(-c2ccc(C(C)(C)C)cc2)nc1C` (racemic) [Compound 620, rac-(8S,11S,14S)-17-acetamido-3-(2-aminoethoxy)-N-(cyanomethyl)-18-hydroxy-11-methyl-14-[methyl-[rac-(2S)-4-amino-2-[[2-(4-tert-butylphenyl)-4,6-dimethyl-pyrimidine-5-carbonyl]amino]butanoyl]amino]-10,13-dioxo-9,12-diazatricyclo[13.3.1.12,6]icosa-1(18),2(20),3,5,15(19),16-hexaene-8-carboxamide], the MIC came to 0.5 µM.
